Entries after “also recorded” stand apart in the source; their conditions may differ. Square brackets hold non-standard residues; d marks the D form. Peptide text beside a SMILES is read from it. d2Nal = N[C@H](Cc1ccc2ccccc2c1)C(=O)O
How the values were obtained:
[1] = tested on: rat model of acetic acid induced bladder irritation; experiment: Rat model of acetic acid induced bladder irritation (Example 2); format: in vivo; conditions: for intercontraction interval (ICI): Example 2, FIG. 1, i.v. after acetic acid, Aspirin 10 mg/kg; for intercontraction interval (ICI) / bladder capacity: Icatibant 0.2, 1 and 5 mg/kg, Oxybutynin 1 mg/kg, R-715 1 mg/kg; for bladder capacity: Example 2, FIG. 2, i.v. after acetic acid, aspirin 10 mg/kg; for bladder capacity, pre-treatment: Example 2, pre-treatment prior to acetic acid application; for micturition pressure: Example 2, FIG. 3, after start of acetic acid infusion
Experimental: Groups of 5 female Wistar rats weighing 250 to 300 g anesthetized with urethane 1.2 g/kg i.p. in 5 ml/kg were used. A polyethylene catheter (PE50) was implanted into the bladder for saline or acetic acid infusion through a 3 way stopcock to which a pressure transducer is connected for measurements of bladder pressure (mm Hg). Saline at 37° C. was infused into the bladder at a constant rate until cystometrography stabilized in 60 minutes. Subsequently, 0.2% acetic acid was infused into the urinary bladder. […] The following parameters were measured continuously during baseline and for up to 1 hour post-dosing: bladder capacity (μl), intercontraction interval (ICI, in minutes, time between two voiding cycles), micturition pressure (mm Hg), micturition volume (ml, derived from the weight of excreted urine measured by a balance placed below the rat) and blood pressure (mm Hg). [table] Paired Student's test was applied for comparison between the time before (baseline) and after test substance or with vehicle treatment. To signify differences between test substance and vehicle control groups, Dunnett's test or unpair Student t test was used. Differences are considered significant at P<0.05 level.

[2] = tested on: rat model of acetic acid induced bladder irritation; experiment: Rat model of acetic acid induced bladder irritation (Example 1); format: in vivo
Experimental: Groups of 5 female Wistar rats weighing 250 to 300 g anesthetized with urethane 1.2 g/kg i.p. in 5 ml/kg were used. A polyethylene catheter (PE50) was implanted into the bladder for saline or acetic acid infusion through a 3 way stopcock to which a pressure transducer is connected for measurements of bladder pressure (mm Hg). Saline at 37° C. was infused into the bladder at a constant rate until cystometrography becomes stable. Thereafter, instillation of 0.2% acetic acid into the urinary bladder was initiated. […] The following parameters were measured continuously for 1 hour after treatment was started: intercontraction interval (ICI, minutes, defined as the time between two voiding cycles), threshold pressure (mmHg), bladder capacity (ml), micturition volume (ml), and micturition pressure (mmHg). Micturition volume is derived from the weight of excreted urine measured by a balance placed below the rat.
Paired Student's test was applied for comparison between the time before and after test substance or with vehicle treatment. To signify differences between test substance and vehicle control group, Dunnett's test was used. Differences are considered significant at P<0.05.

guinea pig B2 receptors = target: T1, guinea pig B2 receptors (Cavia porcellus, UniProt O70526); conditions: human INT407 cells; cited from earlier work
T1 construct: host or cells: human INT407 cells
T1 sequence (O70526 1-372): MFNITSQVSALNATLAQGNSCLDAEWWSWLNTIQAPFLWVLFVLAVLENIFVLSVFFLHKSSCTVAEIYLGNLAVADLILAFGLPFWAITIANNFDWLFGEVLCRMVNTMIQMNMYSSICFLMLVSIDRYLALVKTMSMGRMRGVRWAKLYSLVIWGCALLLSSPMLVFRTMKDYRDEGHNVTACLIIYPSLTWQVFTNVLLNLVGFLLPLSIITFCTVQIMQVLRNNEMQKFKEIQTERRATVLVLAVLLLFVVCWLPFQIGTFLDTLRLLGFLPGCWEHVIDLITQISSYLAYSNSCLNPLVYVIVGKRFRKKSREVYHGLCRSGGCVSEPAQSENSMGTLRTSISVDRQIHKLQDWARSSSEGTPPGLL

CC(=O)Oc1ccccc1C(=O)O [Aspirin]
intercontraction interval (ICI) [1]: increases
bladder capacity [1]: increases the bladder capacity until reaching the baseline levels

COc1cc(CNC(=O)CCCC/C=C/C(C)C)ccc1O [Capsaicin]
intercontraction interval (ICI), Capsaicin pre-treatment ([1]; Example 2, 25 mg/kg and 50 mg/kg s.c., 4 days prior to experiment): inhibition of the acetic acid—triggered ICI—decrease
bladder capacity, pre-treatment [1]: completely blocks the acetic acid induced decrease of bladder capacity

NC(N)=NCCC[C@@H](N)C(=O)N[C@@H](CCCN=C(N)N)C(=O)N1CCC[C@H]1C(=O)N1C[C@H](O)C[C@H]1C(=O)NCC(=O)N[C@@H](Cc1cccs1)C(=O)N[C@@H](CO)C(=O)N1Cc2ccccc2C[C@@H]1C(=O)N1[C@H](C(=O)N[C@@H](CCCN=C(N)N)C(=O)O)C[C@@H]2CCCC[C@@H]21 [Icatibant, H-D-Arg-Arg-Pro-Hyp-Gly-Thi-Ser-D-Tic-Oic-Arg-OH]
intercontraction interval (ICI) ([2]; Example 1, FIG. 1, in comparison to the vehicle group, i.v. after start of acetic acid infusion): dose-dependently increases
bladder capacity ([2]; Example 1, FIG. 2, in comparison to the vehicle group, i.v. after start of acetic acid infusion): dose-dependently increases
micturition pressure ([2]; Example 1, FIG. 3, i.v. after start of acetic acid infusion): no decrease
bladder capacity ([2]; Example 1 summary, 1 mg/kg): doubling
interval between two micturition contractions ([2]; Example 1 summary, 1 mg/kg): doubling
micturition pressure ([2]; Example 1 summary, 1 mg/kg): without any change
reversal of acetic acid induced detrusor instabilities ([2]; rat, 1 mg/kg i.v.): able to reverse
intercontraction interval (ICI), pre-treatment ([1]; Example 2, 1 mg/kg i.v. 30 minutes prior to intravesical acetic acid infusion): strongly inhibits decrease of ICI
intercontraction interval (ICI) [1]: increases; also recorded: doubling
bladder capacity [1]: increases the bladder capacity until reaching the baseline levels; also recorded: tripling
micturition pressure [1]: without any change
lowest dose at which maximal effects on ICI were reached ([1]; Example 2, i.v. after acetic acid): 0.2 mg/kg
bladder capacity, pre-treatment [1]: completely blocks the acetic acid induced decrease of bladder capacity
acetic acid induced bladder dysfunction, pre-treatment ([1]; Example 2 summary, pre-treatment before acetic acid): complete inhibition
inhibition of BK-mediated inositol phosphate generation (guinea pig B2 receptors): efficiently inhibited

CCN(CC)CC#CCOC(=O)C(O)(c1ccccc1)C1CCCCC1 (stereo not drawn) [Oxybutynin, 4-diethylaminio-2-butynyl phenylcyclohexyglycolate]
intercontraction interval (ICI) [1]: if any, only slight positive effects
bladder capacity [1]: no significant effects

CC[C@H](C)[C@H](NC(=O)[C@@H](Cc1ccc2ccccc2c1)NC(=O)[C@H](CO)NC(=O)[C@H](Cc1ccccc1)NC(=O)CNC(=O)[C@@H]1CCCN1C(=O)[C@@H]1CCCN1C(=O)[C@H](CCCN=C(N)N)NC(=O)[C@H](CCCCN)NC(C)=O)C(=O)O [R-715, H-Ac-Lys-Arg-Pro-Pro-Gly-Phe-Ser-D-Nal-Ile-OH] (Ac-KRPPGFS[d2Nal]I-OH)
micturition pressure [1]: without any change

CC[C@H](C)[C@H](NC(=O)[C@@H](Cc1ccc2ccccc2c1)NC(=O)[C@H](CO)NC(=O)[C@H](Cc1ccccc1)NC(=O)CNC(=O)[C@@H]1CCCN1C(=O)[C@@H]1CCCN1C(=O)[C@H](CCCNC(=N)N)NC(=O)[C@H](CCCCN)NC(C)=O)C(=O)O [R-715, H-Ac-Lys-Arg-Pro-Pro-Gly-Phe-Ser-D-Nal-Ile-OH] (Ac-KRPPGFS[d2Nal]I-OH)
intercontraction interval (ICI) [1]: becomes effective over the study time as well but positive effects on ICI are delayed; also recorded: doubling
bladder capacity [1]: increases the bladder capacity until reaching the baseline levels; also recorded: tripling
